The text below walks through data of patent US9005677B2, “Autophagy enhancer for treatment of neurodegenerative diseases” (Macau University of Science and Technology, priority 2013, dated 2015).

The subject of test [1] is P-AMPK and P-p70S6K in PC12 cells. Kind of test: Western blot of mTOR signaling marker proteins. The test is classed as cell-based, rat. How it is done:
Detection of mTOR signaling marker proteins. PC12 cells treated with indicated time and concentrations of Onjisaponin B were harvested and lysed in RIPA buffer (Cell Signaling). The cell lysates were then resolved by SDS-PAGE. After electrophoresis, the proteins from SDS-PAGE were transferred to nitrocellulose membrane which was then blocked with 5% non-fat dried milk for 60 minutes. The membrane was then incubated with P-p70S6K, p70S6K, P-AMPK, AMPK primary antibodies (1:1000) in TBST overnight at 4° C. respectively. After that, the membrane was further incubated with HRP-conjugated secondary antibodies for 60 minutes. Finally, protein bands were visualized by using the ECL Western Blotting Detection Reagents (Invitrogen).

Test [2] has as its system Atg7 wild-type mouse embryonic fibroblasts. Kind of test: GFP-LC3 puncta in Atg7 wild-type MEFs. The test is classed as cell-based. How it is done: Quantification of autophagy GFP-LC3 Puncta in Atg7 wild type and deficient MEFs. GFP-LC3 puncta formation was quantified as described previously. In brief, both Atg7 wild-type and deficient mouse embryonic fibroblasts (MEFs) grown on coverslips in a 6-well plate were treated with indicated concentrations of Onjisaponin B. The cells were then fixed in 4% paraformaldehyde for 20 minutes at room temperature and then rinsed with PBS. Slides were mounted with FluorSave™ mounting media (Calbiochem, San Diego, Calif.) and examined by fluorescence microscopy. The number of GFP-positive cells with GFP-LC3 puncta formation was examined under the Nikon ECLIPSE 80i microscope. Representative images were captured with CCD digital camera Spot RT3™ (Diagnostic Instruments, Inc., Melville, N.Y.). To quantify for autophagy, the percentage of cells with punctate GFP-LC3 fluorescence was calculated by counting the number of the cells with punctate GFP-LC3 fluorescence in GFP-positive cells. A minimum of 150 cells from 3 randomly selected fields was scored.

Test [3] concerns mutant huntingtin EGFP-HDQ74 in PC 12 cells. Kind of test: Removal of mutant huntingtin, immunoblotting against EGFP. Type of test: cell-based, rat. Conditions: 24 hours treatment. How it is done:
Removal of mutant huntingtin and mutant α-synuclein. PC 12 cells were transfected transiently with EGFP-HDQ74 plasmids for 24 hours using Lipofectamine Plus LTX reagent (Invitrogen) according to the manufacturer's protocol. The transfected cells were then treated with Onjisaponin B for 24 hours. The removal of mutant huntingtin, EGFP-HDQ74, was then quantitated by immunoblotting with antibody against EGFP. To measure the clearance of α-synuclein in cellular model, the overexpression of mutant A53T α-synuclein was first induced by the addition of doxycycline (1 μg/ml) (Sigma) for 24 hours, by using the doxycycline inducible PC 12 cell line transfected with A53T α-synuclein plasmid. The expression of mutant A53T α-synuclein was then switched off by removing doxycycline from medium. Cells were then incubated with Onjisaponin B for a further 24 hours. The clearance of mutant α-synuclein was then measured by immunoblotting with antibody against myc tag.
On the technique in general: In western blotting, separated proteins are transferred to a membrane and probed.

Turning to `COc1ccc(/C=C/C(=O)O[C@@H]2[C@H](O[C@@H]3O[C@@H](C)[C@H](O)[C@@H](O)[C@H]3O)[C@@H](O[C@@H]3O[C@@H](C)[C@H](O[C@@H]4OC[C@@H](O[C@@H]5O[C@H](CO)[C@H](O)[C@H](O)[C@H]5O)[C@H](O)[C@H]4O)[C@@H](O)[C@H]3O)[C@H](OC(=O)[C@]34CCC(C)(C)C[C@H]3C3=CC[C@@H]5[C@@]6(C)C[C@H](O)[C@H](O[C@@H]7O[C@H](CO)[C@@H](O)[C@H](O)[C@H]7O)[C@@](C)(C(=O)O)[C@@H]6CC[C@@]5(C)[C@]3(CO)CC4)O[C@@H]2C)cc1` [Onjisaponin B], the “Phosphorylation of AMPK” value in test [1] (25 μM at 8, 16, 24 hour, 3, 6.25, 12.5, 25 μM at 24 hour) is “activate the phosphorylation of AMPK in a time dependent manner”. For the same compound, in test [1] (same treatments as AMPK blot), the p70S6K phosphorylation entry is on record as “concomitant reduction in its downstream p70S6K phosphorylation”. Also, the “GFP-LC3 puncta formation in wild type Atg7 cells” value in test [2] is “induce GFP-LC3 puncta formation”. For the same compound, the “Clearance of overexpressed EGFP-tagged mutant huntingtin with 74 CAG repeats” value in test [3] is listed as “enhanced the clearance”.
